In patent US20120053168A1, “FUSED BENZOAZEPINES AS NEURONAL NICOTINIC ACETYLCHOLINE RECEPTOR LIGANDS” (Targacept, Inc., priority 2009, published 2012):
Like-named read-outs stand apart in the source and are kept apart here.

Columns and labels:
Human α4β2 nAChR subtype = target: T1, Human α4β2 nAChR subtype (Homo sapiens, UniProt P17787+P43681); assay: [3H]nicotine radioligand binding, membranes from SH-EP1/human α4β2 clonal cells
T1 construct: expressed in transfected cells; host or cells: SH-EP1 clonal cells
Protocol: Preparation of membranes from SH-EP1/human α4β2 clonal cells:
Cell pellets from 40 150 mm culture dishes were pooled, and homogenized by Polytron (Kinematica GmbH, Switzerland) in 20 milliliters of ice-cold preparative buffer. The homogenate was centrifuged at 48,000 g for 20 minutes at 4° C. The resulting pellet was re-suspended in 20 mL of ice-cold preparative buffer and stored at ˜20° C.
(§1) On the day of the assay, the frozen membranes were thawed and spun at 48,000×g for 20 min. The supernatant was decanted and discarded. The pellet was resuspended in Dulbecco's phosphate buffered saline (PBS, Life Technologies) pH 7.4 and homogenized with the Polytron for 6 seconds. Protein concentrations were determined using a Pierce BCA Protein Assay Kit, with bovine serum albumin as the standard (Pierce Chemical Company, Rockford, Ill.).
(§2) Assay: Membrane preparations (approximately 50 μg for human and 200-300 μg protein for rat α4β2) were incubated in PBS (50 μL and 100 μL respectively) in the presence of competitor compound (0.01 nM to 100 μM) and 5 nM [^3H]nicotine for 2-3 hours on ice. Incubation was terminated by rapid filtration on a multi-manifold tissue harvester (Brandel, Gaithersburg, Md.) using GF/B filters presoaked in 0.33% polyethyleneimine (w/v) to reduce non-specific binding. Tissue was rinsed 3 times in PBS, pH 7.4. Scintillation fluid was added to filters containing the washed tissue and allowed to equilibrate. Filters were then counted to determine radioactivity bound to the membranes by liquid scintillation counting (2200CA Tri-Carb LSC, Packard Instruments, 50% efficiency or Wallac Trilux 1450 MicroBeta, 40% efficiency, Perkin Elmer).
(§3) Data were expressed as disintegrations per minute (DPMs). Within each assay, each point had 2-3 replicates. The replicates for each point were averaged and plotted against the log of the drug concentration. IC50, which is the concentration of the compound that produces 50% inhibition of binding, was determined by least squares non-linear regression. Ki values were calculated using the Cheng-Prussof equation (1973): […]
(§4) where N is the concentration of [^3H]nicotine and Kd is the affinity of nicotine (3 nM, determined in a separate experiment).

Rat α4β2 nAChR subtype = target: T2, Rat α4β2 nAChR subtype (Rattus norvegicus, UniProt P09483+P12390); assay: [3H]nicotine radioligand binding, membranes from rat cortex
T2 construct: from tissue; host or cells: rat cerebral cortex membranes (female Sprague-Dawley)
Protocol: Preparation of membranes from rat cortex: Rats (female, Sprague-Dawley), weighing 150-250 g, were maintained on a 12 h light/dark cycle and were allowed free access to water and food supplied by PMI Nutrition International, Inc. Animals were anesthetized with 70% CO2, and then decapitated. Brains were removed and placed on an ice-cold platform. The cerebral cortex was removed and placed in 20 volumes (weight:volume) of ice-cold preparative buffer (137 mM NaCl, 10.7 mM KCl, 5.8 mM KH2PO4, 8 mM Na2HPO4, 20 mM HEPES (free acid), 5 mM iodoacetamide, 1.6 mM EDTA, pH 7.4); PMSF, dissolved in methanol to a final concentration of 100 μM, was added and the suspension was homogenized by Polytron. The homogenate was centrifuged at 18,000×g for 20 min at 4° C. and the resulting pellet was re-suspended in 20 volumes of ice-cold water. After 60 min incubation on ice, a new pellet was collected by centrifugation at 18,000×g for 20 min at 4° C. The final pellet was re-suspended in 10 volumes of buffer and stored at ˜20° C.
as §1, §2, §3, §4

[1] = [3H]nicotine, "Failed HTS" = failed to bind sufficiently in high through-put screening to warrant Ki determination
[2] = [3H]nicotine, "Failed HTS" = failed to bind sufficiently in high through-put screening to warrant Ki determination, read-out: Human α4β2 Ki
[3] = [3H]nicotine, "Failed HTS" = failed to bind sufficiently in high through-put screening to warrant Ki determination, read-out: Rat α4β2 Ki

T2 sequence (P09483 31-630): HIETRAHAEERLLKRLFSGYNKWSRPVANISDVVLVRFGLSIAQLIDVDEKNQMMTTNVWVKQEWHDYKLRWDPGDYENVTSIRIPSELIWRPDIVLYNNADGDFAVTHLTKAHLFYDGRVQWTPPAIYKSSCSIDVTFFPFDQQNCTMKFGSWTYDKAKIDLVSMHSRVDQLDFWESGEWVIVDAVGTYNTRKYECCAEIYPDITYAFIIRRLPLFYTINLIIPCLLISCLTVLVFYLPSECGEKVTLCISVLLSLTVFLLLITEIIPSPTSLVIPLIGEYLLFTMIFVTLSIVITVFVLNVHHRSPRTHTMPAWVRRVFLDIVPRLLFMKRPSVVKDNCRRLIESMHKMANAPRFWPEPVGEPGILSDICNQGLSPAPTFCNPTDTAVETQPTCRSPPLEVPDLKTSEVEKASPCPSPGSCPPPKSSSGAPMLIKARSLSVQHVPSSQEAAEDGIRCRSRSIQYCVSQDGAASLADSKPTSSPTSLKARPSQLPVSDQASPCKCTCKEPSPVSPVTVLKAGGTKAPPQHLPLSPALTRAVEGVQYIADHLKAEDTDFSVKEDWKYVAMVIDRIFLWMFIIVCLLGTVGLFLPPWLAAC
T2 sequence (P12390 25-500): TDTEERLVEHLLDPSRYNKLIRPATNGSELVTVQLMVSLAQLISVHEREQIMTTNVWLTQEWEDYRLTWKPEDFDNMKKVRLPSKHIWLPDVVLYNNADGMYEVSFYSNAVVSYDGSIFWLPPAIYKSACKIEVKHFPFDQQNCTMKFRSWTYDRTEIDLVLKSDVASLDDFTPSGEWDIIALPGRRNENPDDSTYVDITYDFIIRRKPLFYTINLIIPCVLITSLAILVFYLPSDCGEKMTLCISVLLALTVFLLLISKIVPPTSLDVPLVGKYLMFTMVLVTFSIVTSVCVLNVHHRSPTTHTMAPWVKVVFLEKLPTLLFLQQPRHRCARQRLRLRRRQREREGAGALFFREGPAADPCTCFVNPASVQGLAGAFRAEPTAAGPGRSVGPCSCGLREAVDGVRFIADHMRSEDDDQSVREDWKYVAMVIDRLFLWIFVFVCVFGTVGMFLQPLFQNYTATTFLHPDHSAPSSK
T1 sequence (P43681 29-627 limits assumed): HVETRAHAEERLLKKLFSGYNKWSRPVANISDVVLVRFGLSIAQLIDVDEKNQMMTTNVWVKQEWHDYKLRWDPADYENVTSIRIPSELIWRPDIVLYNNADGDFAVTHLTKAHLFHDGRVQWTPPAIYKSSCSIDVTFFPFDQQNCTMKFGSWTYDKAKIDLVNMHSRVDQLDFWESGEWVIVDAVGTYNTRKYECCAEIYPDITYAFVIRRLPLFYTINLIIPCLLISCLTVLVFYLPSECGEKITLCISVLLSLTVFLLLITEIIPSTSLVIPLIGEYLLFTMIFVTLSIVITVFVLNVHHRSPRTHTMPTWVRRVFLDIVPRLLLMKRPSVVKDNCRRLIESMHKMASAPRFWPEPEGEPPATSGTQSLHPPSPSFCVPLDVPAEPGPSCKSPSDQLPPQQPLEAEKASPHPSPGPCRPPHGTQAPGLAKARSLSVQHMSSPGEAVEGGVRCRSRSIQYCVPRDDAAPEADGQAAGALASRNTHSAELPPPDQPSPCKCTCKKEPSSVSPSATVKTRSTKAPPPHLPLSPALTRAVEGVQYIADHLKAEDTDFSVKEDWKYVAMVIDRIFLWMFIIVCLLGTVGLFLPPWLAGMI
T1 sequence (P17787 26-502): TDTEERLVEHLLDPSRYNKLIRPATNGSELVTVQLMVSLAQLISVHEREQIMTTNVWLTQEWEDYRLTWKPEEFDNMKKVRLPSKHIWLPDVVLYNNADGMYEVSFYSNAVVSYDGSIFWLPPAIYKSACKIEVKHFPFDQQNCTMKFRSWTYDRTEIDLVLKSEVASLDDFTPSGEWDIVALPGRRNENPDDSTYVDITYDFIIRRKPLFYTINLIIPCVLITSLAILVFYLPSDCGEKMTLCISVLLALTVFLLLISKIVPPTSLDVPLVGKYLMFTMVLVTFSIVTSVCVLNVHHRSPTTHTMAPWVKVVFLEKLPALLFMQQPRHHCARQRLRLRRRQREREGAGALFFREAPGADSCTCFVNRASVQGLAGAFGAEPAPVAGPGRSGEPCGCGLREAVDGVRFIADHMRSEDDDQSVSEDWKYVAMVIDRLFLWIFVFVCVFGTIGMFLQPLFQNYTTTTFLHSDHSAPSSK

Structure (SMILES) | Rat α4β2 Ki (nM) (Rat α4β2 nAChR subtype; [1]) | Ki (Human α4β2 nAChR subtype; [2]) | other results
Cc1nc2cc3c(cc2nc1C)CCNCC3 [B] | – | – | Ki (Human α4β2 nAChR subtype): 98 nM; Ki (Rat α4β2 nAChR subtype): 590 nM
CNc1cnc2cc3c(cc2n1)CCNCC3 [K] | Failed HTS | – | Human α4β2 Ki (nM) (Human α4β2 nAChR subtype; [1]): Failed HTS
Clc1cnc2cc3c(cc2n1)CCNCC3 [J] | – | – | Ki (Human α4β2 nAChR subtype): 45 nM; Ki (Rat α4β2 nAChR subtype): 12 nM
CN(C)c1cnc2cc3c(cc2n1)CCNCC3 [L] | Failed HTS | 740 nM | –
COc1ccc2cc3c(cc2n1)CCNCC3 [P] | Failed HTS | 1200 nM | –
O=c1ccc2cc3c(cc2[nH]1)CCNCC3 [N] | Failed HTS | – | Human α4β2 Ki (nM) (Human α4β2 nAChR subtype; [1]): Failed HTS
c1ccc(CNc2cnc3cc4c(cc3n2)CCNCC4)cc1 [M] | Failed HTS | 530 nM | –
CN1CCc2cc3nccnc3cc2CC1 [R] | Failed HTS | – | Ki (Human α4β2 nAChR subtype): 210 nM
COc1cnc2cc3c(cc2n1)CCNCC3 [H] | – | 25 nM | Ki (Rat α4β2 nAChR subtype; [3]): 77 nM
O=c1cnc2cc3c(cc2[nH]1)CCNCC3 [G] | – | 63 nM | Ki (Rat α4β2 nAChR subtype; [3]): 120 nM
Cc1ccc2cc3c(cc2n1)CCNCC3 [Q] | – | 11 nM | Ki (Rat α4β2 nAChR subtype; [3]): 45 nM
CCc1nc2cc3c(cc2nc1C)CCNCC3 [C] | Failed HTS | 310 nM | –
Cc1cnc2cc3c(cc2n1)CCNCC3 [E] | – | 37 nM | Ki (Rat α4β2 nAChR subtype; [3]): 63 nM
c1cnc2cc3c(cc2c1)CCNCC3 [F] | – | 0.93 nM | Ki (Rat α4β2 nAChR subtype; [3]): 3 nM
CCc1nc2cc3c(cc2nc1CC)CCNCC3 [D] | Failed HTS | 460 nM | –
c1cncc(-c2cnc3cc4c(cc3n2)CCNCC4)c1 [I] | Failed HTS | – | Ki (Human α4β2 nAChR subtype): 7400 nM
Clc1ccc2cc3c(cc2n1)CCNCC3 [O] | – | – | Ki (Human α4β2 nAChR subtype): 0.48 nM; Ki (Rat α4β2 nAChR subtype): 3.1 nM
